Measured values from US20230357099A1, “PYRAZOLO [3,4-B] PYRIDINE-4-CARBOXAMIDE NITRIFICATION INHIBITOR” (EUROCHEM ANTWERPTEN, priority 2020, published 2023).

Legend:
[1] = system: agricultural soils (Moorslede and Sint-Laureins); test: Greenhouse gas measurements from fertilized soil
Procedure: Two agricultural soils coming from fields in Moorslede and Sint-Laureins were used. Screw top vials were filled with 10 g soil. Vials were sealed with Parafilm and preincubated at 21° C. in the dark for 5 days. After pre-incubation, vials were ventilated using a fan. Then 100 µL of a 1 mM compound solution (10 % DMSO) was added, immediately followed by the addition of 100 µL 200 mM NH4Cl. Vials were closed gastight and 5 mL synthetic air was added to the headspace using a plastic syringe, followed by the transfer of 5 mL headspace to an evacuated 3 mL exetainer. Vials were incubated at 21° C. in the dark and background NO concentration was noted. At each sampling timepoint, 5 mL synthetic air was added again to the headspace using a plastic syringe, again followed by the transfer of 5 mL headspace to an evacuated 3 mL exetainer. Vials were ventilated and closed again, and new gas samples were transferred to exetainers like before. N2O in the exetainers were measured via gas chromatography (GC-14 B (Schimadzu) equipped with Haysep Q columns (same spec) and an ECD detector, He at c.a. 20 mL min, 70° C.). The CO2 and CH4 concentration in the 3 mL exetainer vials was measured using a GC (Trace-GC, Interscience) equipped with Haysep Q columns (80-100, ⅛″ divided in 2 part 0.25 and 2.0 m connected with a 6 port valve to allow backflush of water vapor) and a FID (CH4) and TCD (CO2). Carrier gas was He c.a. 20 mL/min kept at 90° C. NO concentration was measured directly by connecting a chemiluminescence NO detector (CLD 77 AM, eco physics) directly to the headspace using a needle.

[2] = system: ABIL (ammonia-binding liquid inoculum), nitrifying microbial enrichment containing both AOA and AOB; test: Nitrification inhibition assay on ABIL (ammonium consumption); type: cell-based; settings: 0% = as strong as 100 µM PTIO, 100% = no inhibition
[3] = system: Candidatus Nitrospira kreftii; test: Nitrification inhibition in Candidatus Nitrospira kreftii; type: cell-based; settings: concentration of 6.25 µM
Procedure: Candidatus Nitrospira kreftii is a high (90%) enrichment of novel comammox species. To quantify nitrification inhibition in Ca. Nitrospira kreftii, a homogenous sample was taken from the bioreactor, washed and resuspended in sterile NOB mineral salts medium supplemented with (per liter) 1 mL of a trace element stock solution composed of NTA (15 g/L), ZnSO4 · 7H2O (0.43 g/L), CoCl2 · 6H2O (0.24 g/L), MnCl2 · 4H2O (0.99 g/L), CuSO4 · 5H2O (0.25 g/L), Na2MoO4 · 2H2O (0.22 g/L), NiCl2 · 6H2O (0.19 g/L), NaSeO4·10H2O (0.021 g/L), […] (0.014 g/L), CeCl·6H2O (0.24 g/L) and 1 mL of an iron stock solution composed of NTA (10 g/L) and FeSO4 (5 g/L). The final ammonium concentration was 200 µM.
To increase the nitrification rate, the cell density was increased 5 times via centrifugation. For homogenous distribution of the flocs, Ca. Nitrospira kreftii was continuously stirred during distribution with a multichannel pipet in the 96-well plates. […]
Ammonium concentrations were measured fluorescently via a modified orthophatal-dialdehyde assay. Nitrite and nitrate concentrations were determined consecutively with a spectrophotometer (at 540 nm): for nitrite, after addition of 100 µL Griess reagent to 100 µL sample (10 min incubation at room temperature) and for nitrate, subsequent to secondary addition of 27 µL of a saturated VCl3 solution in HCl (30 min incubation at 60° C.).

SMILES: CC(C)c1cc(C(=O)N2CCSCC2)c2cnn(C(C)C)c2n1 [Example 2]
- N2O emissions compared to the DMSO control (in words) ([1]; Moorslede soil): strongly reduced the emissions
- Cumulative emission at indicated timepoint [ppb], N2O, 4 h ([1]; Moorslede soil): 119 ppb
- Cumulative emission at indicated timepoint [ppb], N2O, 24 h ([1]; Moorslede soil): 834 ppb
- Cumulative emission at indicated timepoint [ppb], N2O, 48 h ([1]; Moorslede soil): 1616 ppb
- Cumulative emission at indicated timepoint [ppb], N2O, 72 h ([1]; Moorslede soil): 1875 ppb
- Cumulative emission at indicated timepoint [ppb], N2O, 99 h ([1]; Moorslede soil): 1875 ppb
- Cumulative emission at indicated timepoint [ppb], NO, 4 h ([1]; Moorslede soil): 256 ppb
- Cumulative emission at indicated timepoint [ppb], NO, 24 h ([1]; Moorslede soil): 611 ppb
- Cumulative emission at indicated timepoint [ppb], NO, 48 h ([1]; Moorslede soil): 1020 ppb
- Cumulative emission at indicated timepoint [ppb], NO, 72 h ([1]; Moorslede soil): 1189 ppb
- Cumulative emission at indicated timepoint [ppb], NO, 99 h ([1]; Moorslede soil): 1183 ppb
- NO emissions compared to the DMSO or DMP control (in words) ([1]; Sint-Laureins soil): reduce NO emissions
- Cumulative emission at indicated timepoint [ppb], N2O, 4 h ([1]; Sint-Laureins soil): 33 ppb
- Cumulative emission at indicated timepoint [ppb], N2O, 24 h ([1]; Sint-Laureins soil): 498 ppb
- Cumulative emission at indicated timepoint [ppb], N2O, 48 h ([1]; Sint-Laureins soil): 1074 ppb
- Cumulative emission at indicated timepoint [ppb], N2O, 72 h ([1]; Sint-Laureins soil): 1562 ppb
- Cumulative emission at indicated timepoint [ppb], N2O, 99 h ([1]; Sint-Laureins soil): 1703 ppb
- Cumulative emission at indicated timepoint [ppb], NO, 4 h ([1]; Sint-Laureins soil): 81 ppb
- Cumulative emission at indicated timepoint [ppb], NO, 24 h ([1]; Sint-Laureins soil): 201 ppb
- Cumulative emission at indicated timepoint [ppb], NO, 48 h ([1]; Sint-Laureins soil): 371 ppb
- Cumulative emission at indicated timepoint [ppb], NO, 72 h ([1]; Sint-Laureins soil): 547 ppb
- Cumulative emission at indicated timepoint [ppb], NO, 99 h ([1]; Sint-Laureins soil): 600 ppb
- ABIL - relative nitrification (%) at 2 µM ([2]; 2 µM compound): 66%
- activity at 10 µM ([2]; 24 h, 10 µM compound, 24 h, read-out: ABIL - relative nitrification (%) at 10 µM): -31%
- inhibition at 6.25 µM [3]: 57.3%
